Target: T1, ornithine decarboxylase (ODC) (Rattus norvegicus, UniProt P09057)
T1 construct: is prepared from the livers of rats which have been injected with thioacetamide; from tissue; host or cells: liver of rats injected with thioacetamide (150 mg/kg, 18 h before sacrifice); purified about ten fold by acid treatment at pH 4.6
T1 sequence (P09057 1-461): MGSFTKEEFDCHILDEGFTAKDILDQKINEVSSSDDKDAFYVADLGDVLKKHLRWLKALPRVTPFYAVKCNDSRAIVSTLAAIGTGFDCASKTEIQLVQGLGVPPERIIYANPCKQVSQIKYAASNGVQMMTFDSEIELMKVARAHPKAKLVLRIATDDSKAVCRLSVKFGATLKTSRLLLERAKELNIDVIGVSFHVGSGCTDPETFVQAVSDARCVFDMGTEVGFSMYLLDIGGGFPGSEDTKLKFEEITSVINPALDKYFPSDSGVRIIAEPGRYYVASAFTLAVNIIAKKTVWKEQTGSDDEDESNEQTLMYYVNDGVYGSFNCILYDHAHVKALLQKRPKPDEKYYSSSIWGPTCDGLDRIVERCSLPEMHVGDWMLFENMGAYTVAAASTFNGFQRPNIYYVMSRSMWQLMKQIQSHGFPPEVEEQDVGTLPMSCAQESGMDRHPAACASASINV
Assay: in vitro inhibition (time-dependent inactivation) of ornithine decarboxylase (ODC) prepared from rat liver
Type: biochemical
Conditions: 37° C.; for .tau.50 (half-life, at infinite concentration of inhibitor): pH 7.1, Kitz and Wilson; for Half-life (t1/2) at 10 μM: inhibitor at 10 μM, pH 7.1
Protocol: At different times 50 μl aliquots are transferred into a 1 mL assay medium containing sodium phosphate (30 mM, pH 7.1), dithiothreitol (5 mM), pyridoxal phosphate (0.1 mM), L-ornithine (0.081 μmol), and DL-[1-^14 C]ornithine (0.043 μmol, 58 Ci/mol, Amersham) in a closed vessel in which a filter paper moistered with 50 μl hyamine hydroxide (1M) is fitted. The reaction is allowed to proceed for 60 min at 37° C. and then terminated by addition of 0.5 ml of 40% trichloroacetic acid. After an additional 30 min, the CO2 absorbed on the filter paper is counted in a standard scintillation cocktail.

| Compound | .tau.50 (half-life, at infinite concentration of inhibitor) | Half-life (t1/2) at 10 μM |
| --- | --- | --- |
| C=C(CN)CC(N)CF (stereo not shown) [B, 1-fluoro-2,5-diamino-4-methylene-pentane] | 2.6 min | 6.4 min |
| C=C(CN)CC(N)(CF)C(=O)O (stereo not shown) [D, 2-fluoromethyl-2,5-diamino-4-methylene-pentanoic acid] | 3.6 min | 23 min |
| NCC(=O)CC(N)CF (stereo not shown) [C, 1-fluoro-2,5-diamino-4-oxo-pentane] | 1.6 min | 2.8 min |
| C=C(CN)CC(N)C(F)F (stereo not shown) [E, 1,1-difluoro-2,5-diamino-4-methylene-pentane] | 2.2 min | 14 min |
| NCC(=O)CC(N)(CF)C(=O)O (stereo not shown) [A, 2-fluoromethyl-2,5-diamino-4-oxo-pentanoic acid] | 3.1 min | 4.5 min |

Source: patent US4446151A, “Decarboxylase-inhibiting fluorinated pentane diamine derivatives” (Merrell Toraude et Compagnie, priority 1982, dated 1984)
